The source of these data is US20080242685A1, “Chemical Compounds” (Smithkline Beecham Corporation, priority 2005, published 2008).

Each structure is given as a SMILES string.

The assay deals with T1, Recombinant human IKKβ (residues 1-737) (Homo sapiens, UniProt O14920).
T1 construct: Recombinant human IKKβ (residues 1-737); GST (C); made in house
T1 sequence (O14920 1-737): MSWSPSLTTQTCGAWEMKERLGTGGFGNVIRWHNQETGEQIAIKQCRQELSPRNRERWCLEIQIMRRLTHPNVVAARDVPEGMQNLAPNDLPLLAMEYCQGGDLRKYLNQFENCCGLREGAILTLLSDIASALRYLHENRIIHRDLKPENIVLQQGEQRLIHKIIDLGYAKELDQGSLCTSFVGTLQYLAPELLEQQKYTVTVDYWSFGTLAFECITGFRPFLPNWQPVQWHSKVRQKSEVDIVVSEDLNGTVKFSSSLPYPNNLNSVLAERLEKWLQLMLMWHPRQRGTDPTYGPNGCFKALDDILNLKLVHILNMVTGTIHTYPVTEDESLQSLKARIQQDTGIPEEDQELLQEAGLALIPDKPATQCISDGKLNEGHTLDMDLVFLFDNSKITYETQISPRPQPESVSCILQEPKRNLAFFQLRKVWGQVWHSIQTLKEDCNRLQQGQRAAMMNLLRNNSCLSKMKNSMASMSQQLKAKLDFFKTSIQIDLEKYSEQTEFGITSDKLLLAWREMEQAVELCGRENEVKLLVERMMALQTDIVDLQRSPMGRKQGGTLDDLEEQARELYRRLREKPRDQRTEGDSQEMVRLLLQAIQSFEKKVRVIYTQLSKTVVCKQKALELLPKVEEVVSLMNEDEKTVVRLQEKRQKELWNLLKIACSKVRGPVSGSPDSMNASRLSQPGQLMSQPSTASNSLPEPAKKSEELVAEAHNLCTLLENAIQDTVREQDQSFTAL
Description: IKK2 Assay (TR-FRET). Format: biochemical. To be noted: IKK2 5 nM, GST-IκBα substrate 25 nM, ATP 1 μM, 30 minutes at room temperature, read-out: pIC50 against IKK2 (converted). As to the method: Recombinant human IKKβ (residues 1-737) was expressed in baculovirus as a C-terminal GST-tagged fusion protein, and its activity was assessed using a time-resolved fluorescence resonance energy transfer (TR-FRET) assay. Briefly, IKK2 (5 nM final) diluted in assay buffer (50 mM HEPES, 10 mM MgCl2, 1 mM CHAPS pH 7.4 with 1 mM DTT and 0.01% w/v BSA) was added to wells containing various concentrations of compound or DMSO vehicle (3% final). The reaction was initiated by the addition of GST-IκBα substrate (25 nM final)/ATP (1 μM final), in a total volume of 30 μl. The reaction was incubated for 30 minutes at room temperature, then terminated by the addition of 15 μl of 50 mM EDTA. Detection reagent (15 μl) in buffer (100 mM HEPES pH 7.4, 150 mM NaCl and 0.1% w/v BSA) containing antiphosphoserine-IκBα-32/36 monoclonal antibody 12C2 (Cell Signalling Technology, Beverly Mass., USA) labelled with W-1024 europium chelate (Wallac OY, Turku, Finland), and an APC-labelled anti-GST antibody (Prozyme, San Leandro, Calif., USA) was added and the reaction was further incubated for 60 minutes at room temperature. The degree of phosphorylation of GST-IκBα was measured using a Packard Discovery plate reader (Perkin-Elmer Life Sciences, Pangbourne, UK) as a ratio of specific 665 nm energy transfer signal to reference europium 620 nm signal.
A general note: Time-resolved FRET reads energy transfer from a long-lived donor to a nearby acceptor.

On to `CCS(=O)(=O)N1CCC(c2c[nH]c3c(C(N)=O)nc(-c4ccccc4)cc23)CC1` [Example 8, 3-[1-(ethylsulfonyl)-4-piperidinyl]-5-phenyl-1H-pyrrolo[2,3-c]pyridine-7-carboxamide], for which the IC50 is ≤ 10 µM.
`NC(=O)c1nc(-c2ccccc2)cc2c(C3CCNCC3)c[nH]c12` [Example 7, 5-phenyl-3-(4-piperidinyl)-1H-pyrrolo[2,3-c]pyridine-7-carboxamide]: the IC50 is ≤ 10 µM.
With `CC(C)(C)OC(=O)N1CC=C(c2c[nH]c3c(C(N)=O)nc(-c4ccccc4)cc23)CC1` [Example 5, 1,1-dimethylethyl 4-[7-(aminocarbonyl)-5-phenyl-1H-pyrrolo[2,3-c]pyridin-3-yl]-3,6-dihydro-1(2H)-pyridinecarboxylate] the figure was ≤ 10 µM.
Regarding `CC(C)(C)OC(=O)N1CCC(c2c[nH]c3c(C(N)=O)nc(-c4ccccc4)cc23)CC1` [Example 6, 1,1-dimethylethyl 4-[7-(aminocarbonyl)-5-phenyl-1H-pyrrolo[2,3-c]pyridin-3-yl]-1-piperidinecarboxylate], the IC50 is ≤ 10 µM.
Take `NC(=O)c1nc(-c2ccccc2)cc2cc[nH]c12` [Example 14, 5-phenyl-1H-pyrrolo[2,3-c]pyridine-7-carboxamide]: the IC50 was ≤ 10 µM.
